Assay results reported in patent US6540999B1, “Immunomodulatory methods using Lewisx oligosacchardies” (President and Fellows of Harvard College, priority 1996, dated 2003).

Legend:
IgE response [1] = tested on: IgE response; set-up: species or system mice; settings: mouse, in vivo
IgE response [2] = tested on: IgE response; set-up: species or system mice; settings: mouse, in vivo; remark: listed apart in the source
IgE response [3] = experiment: Serum IgE titers after intranasal administration, HSA as antigen; format: in vivo; settings: coadministration with HSA, mice, FIG. 4A
Granuloma macrophages = format: cell-based, C57BL/6 mice
[4] = tested on: naive splenocytes, T cell, B cell and non-T, non-B spleen cell populations; experiment: IL-10 production in vitro by spleen cell subpopulations; format: cell-based, CBA mice; set-up: unit not given here
Source text: (§1) In this example, the types of cells responsive to the multimeric sugar conjugates, and the types of cytokines produced, either in vitro or in vivo, were investigated further. For the in vitro studies, naive splenocytes were isolated from CBA mice and fractionated into T cell, B cell and non-T, non-B spleen cell populations. B cell populations were defined by expression of the B220 surface marker (i.e., B220^+ cells). T cell populations were defined by expression of CD5 or Thy surface markers (i.e., CD5^+ or Thy+).

Human PBMCs [5] = experiment: Proliferation of human PBMCs from allergic or cancer patients (3H-thymidine uptake); format: cell-based; settings: 3H-thymidine uptake at 90 hours; LPS 20 μg/ml, HSA and conjugates 100 μg/ml
Source text: (§2) Human PBMCs were obtained from: 1) an individual who was allergic to pollen; 2) an individual suffering from lung carcinoma and 3) an individual suffering from colon carcinoma.

Human PBMCs [6] = experiment: IL-10 production by human PBMCs from allergic or cancer patients (ELISA); format: cell-based; set-up: unit not given here; settings: 24 hours; LPS 20 μg/ml, HSA and conjugates 100 μg/ml
Source text: as §2

[7] = tested on: naive splenocytes, T cell, B cell and non-T, non-B spleen cell populations; experiment: IFN-γ production in vitro by spleen cell subpopulations; format: cell-based, CBA mice; set-up: unit not given here
Source text: as §1

[8] = naive CBA splenocytes, unfractionated

CC(=O)N[C@H]1[C@H](O[C@H]2[C@@H](O)[C@@H](CO)O[C@@H](O[C@H]3[C@H](O)[C@@H](O)C(O)O[C@@H]3CO)[C@@H]2O)O[C@H](CO)[C@@H](O[C@@H]2O[C@H](CO)[C@H](O)[C@H](O)[C@H]2O)[C@@H]1O (mixture of isomers) [free LNT, lacto-N-neotetraose]
lowering of the total IgE response compared to administration of PLA2 alone (IgE response [1]): not
inhibition of the SEA-specific IgE response (in words) (IgE response [2]): significantly less effective than free LNFPIII
inhibition of the total IgE response to SEA (in words) (IgE response [2]): had a greater inhibitory effect

lacto-N-fucopentaose III [free LNFPIII]
lowering of the total IgE response compared to administration of PLA2 alone (IgE response [1]): approximately 70%
reduction of the PLA2-specific IgE response (IgE response [1]): approximately 40%
reduction in the levels of total IgE as compared to administration of HSA alone (IgE response [3]): approximately 60%
inhibition of the SEA-specific IgE response (in words) (IgE response [2]): marked decrease in the antigen-specific IgE response
inhibition of the total IgE response to SEA (in words) (IgE response [2]): only marginally inhibited

lipopolysaccharide [LPS]
IL-10 LEVEL 24 HR (Granuloma macrophages): 7864 pg/mL
IL-10 LEVEL 48 HR (Granuloma macrophages): 6559 pg/mL
IL-10 LEVEL 72 HR (Granuloma macrophages): 4555 pg/mL
IL-10, B cells (B220+) ([4]; B220+ cells): 552
IL-10, Non-B (B220−) ([4]; B220− cells): 320
IL-10, T cells (CD5+) ([4]; CD5+ cells): 264
IL-10, Non-T (CD5−) ([4]; CD5− cells): 430
IL-10, T cells (Thy+) ([4]; Thy+ cells): 72
IL-10, Non-T (Thy−) ([4]; Thy− cells): 430
IL-10, Total Spleen [4, 8]: 535
CPM, COLON CARCINOMA (Human PBMCs [5]): 222 CPM
CPM, LUNG CARCINOMA (Human PBMCs [5]): 232 CPM
CPM, POLLEN ALLERGIC (Human PBMCs [5]): 1946 CPM
IL-10, COLON CARCINOMA (Human PBMCs [6]): 8221
IL-10, LUNG CARCINOMA (Human PBMCs [6]): 1400
IL-10, POLLEN ALLERGIC (Human PBMCs [6]): 906
IFN-γ, B cells (B220+) ([7]; B220+ cells): 0
IFN-γ, Non-B (B220−) ([7]; B220− cells): 321
IFN-γ, T cells (CD5+) ([7]; CD5+ cells): 403
IFN-γ, Non-T (CD5−) ([7]; CD5− cells): 0
IFN-γ, T cells (Thy+) ([7]; Thy+ cells): 617
IFN-γ, Non-T (Thy−) ([7]; Thy− cells): 0
IFN-γ, Total Spleen [7, 8]: 47

phospholipase A2 [PLA2]
PLA2-specific IgE response elicited (in words) (IgE response [1]): elicits a strong PLA2-specific IgE response
total IgE response elicited (in words) (IgE response [1]): elicits a strong total IgE response
